# From patent publication US8192962B2, “Processes for detecting toxic substances” (Daikin Industries, Ltd., priority 2001, dated 2012)
# Test system: Metabolism protein genes
# Experiment: DNA chip mRNA expression in yeast, metabolism protein genes (Table 7)
# Format: cell-based, Saccharomyces cerevisiae S288C
# Outline: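 Chemical exposure: 2 h, log-phase S. cerevisiae S288C, YPD, 25° C., dose set to inhibit growth without death. Profiling: mRNA labeled by reverse transcription with Cy3- or Cy5-dUTP, hybridized to whole-genome array. Output: fluorescence ratio against untreated culture.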
compound,measurement,setting,value
"CCCCCCCCCCCCOS(=O)(=O)[O-].[Na+] [(18), sodium lauryl sulfate]",The level of expressed mRNA in the presence of chemical substance/The level of expressed mRNA in the absence of chemical substance,yeast gene YAL012W,0.8
same,The level of expressed mRNA in the presence of chemical substance/The level of expressed mRNA in the absence of chemical substance,yeast gene YAL038W,1.0
same,level of expressed mRNA in the presence/in the absence of chemical substance,yeast gene YBR003W,1.3
same,level of expressed mRNA in the presence/in the absence of chemical substance,yeast gene YBR011C,1.1
same,level of expressed mRNA in the presence/in the absence of chemical substance,yeast gene YBR020W,0.9
same,The level of expressed mRNA in the presence of chemical substance/The level of expressed mRNA in the absence of chemical substance,yeast gene YBR023C,0.9
same,The level of expressed mRNA in the presence of chemical substance/The level of expressed mRNA in the absence of chemical substance,yeast gene YBR029C,0.8
same,The level of expressed mRNA in the presence of chemical substance/The level of expressed mRNA in the absence of chemical substance,yeast gene YBR183W,2.4
same,The level of expressed mRNA in the presence of chemical substance/The level of expressed mRNA in the absence of chemical substance,yeast gene YBR222C,0.9
same,The level of expressed mRNA in the presence of chemical substance/The level of expressed mRNA in the absence of chemical substance,yeast gene YBR256C,3.3
same,The level of expressed mRNA in the presence of chemical substance/The level of expressed mRNA in the absence of chemical substance,yeast gene YCL009C,0.8
same,The level of expressed mRNA in the presence of chemical substance/The level of expressed mRNA in the absence of chemical substance,yeast gene YCL064C,0.3
same,level of expressed mRNA in the presence/in the absence of chemical substance,yeast gene YCR010C,1.5
same,level of expressed mRNA in the presence/in the absence of chemical substance,yeast gene YCR034W,0.7
same,The level of expressed mRNA in the presence of chemical substance/The level of expressed mRNA in the absence of chemical substance,yeast gene YCR048W,0.8
same,The level of expressed mRNA in the presence of chemical substance/The level of expressed mRNA in the absence of chemical substance,yeast gene YCR098C,1.6
same,The level of expressed mRNA in the presence of chemical substance/The level of expressed mRNA in the absence of chemical substance,yeast gene YDL174C,4.0
same,The level of expressed mRNA in the presence of chemical substance/The level of expressed mRNA in the absence of chemical substance,yeast gene YDR019C,1.6
same,level of expressed mRNA in the presence/in the absence of chemical substance,yeast gene YDR050C,2.3
same,level of expressed mRNA in the presence/in the absence of chemical substance,yeast gene YDR073W,2.3
same,level of expressed mRNA in the presence/in the absence of chemical substance,yeast gene YDR123C,1.0
same,level of expressed mRNA in the presence/in the absence of chemical substance,yeast gene YDR178W,2.3
same,level of expressed mRNA in the presence/in the absence of chemical substance,yeast gene YDR277C,1.7
same,level of expressed mRNA in the presence/in the absence of chemical substance,yeast gene YDR284C,1.5
same,level of expressed mRNA in the presence/in the absence of chemical substance,yeast gene YDR345C,1.8
same,The level of expressed mRNA in the presence of chemical substance/The level of expressed mRNA in the absence of chemical substance,yeast gene YDR380W,0.8
same,level of expressed mRNA in the presence/in the absence of chemical substance,yeast gene YDR400W,0.8
same,level of expressed mRNA in the presence/in the absence of chemical substance,yeast gene YDR408C,1.1
same,level of expressed mRNA in the presence/in the absence of chemical substance,yeast gene YDR483W,1.4
same,The level of expressed mRNA in the presence of chemical substance/The level of expressed mRNA in the absence of chemical substance,yeast gene YDR497C,1.8
same,The level of expressed mRNA in the presence of chemical substance/The level of expressed mRNA in the absence of chemical substance,yeast gene YDR502C,0.9
same,The level of expressed mRNA in the presence of chemical substance/The level of expressed mRNA in the absence of chemical substance,yeast gene YDR516C,1.2
same,level of expressed mRNA in the presence/in the absence of chemical substance,yeast gene YEL063C,0.7
same,level of expressed mRNA in the presence/in the absence of chemical substance,yeast gene YER015W,2.6
same,The level of expressed mRNA in the presence of chemical substance/The level of expressed mRNA in the absence of chemical substance,yeast gene YER026C,3.2
same,The level of expressed mRNA in the presence of chemical substance/The level of expressed mRNA in the absence of chemical substance,yeast gene YER053C,2.3
same,The level of expressed mRNA in the presence of chemical substance/The level of expressed mRNA in the absence of chemical substance,yeast gene YER069W,0.9
same,level of expressed mRNA in the presence/in the absence of chemical substance,yeast gene YER081W,1.7
same,The level of expressed mRNA in the presence of chemical substance/The level of expressed mRNA in the absence of chemical substance,yeast gene YER096W,1.2
same,level of expressed mRNA in the presence/in the absence of chemical substance,yeast gene YER120W,1.0
same,The level of expressed mRNA in the presence of chemical substance/The level of expressed mRNA in the absence of chemical substance,yeast gene YER178W,0.9
same,level of expressed mRNA in the presence/in the absence of chemical substance,yeast gene YFL011W,1.0
same,The level of expressed mRNA in the presence of chemical substance/The level of expressed mRNA in the absence of chemical substance,yeast gene YFL014W,8.8
same,The level of expressed mRNA in the presence of chemical substance/The level of expressed mRNA in the absence of chemical substance,yeast gene YFL030W,0.8
same,The level of expressed mRNA in the presence of chemical substance/The level of expressed mRNA in the absence of chemical substance,yeast gene YFL031W,1.1
same,The level of expressed mRNA in the presence of chemical substance/The level of expressed mRNA in the absence of chemical substance,yeast gene YFL056C,1.1
same,The level of expressed mRNA in the presence of chemical substance/The level of expressed mRNA in the absence of chemical substance,yeast gene YFL057C,1.3
same,The level of expressed mRNA in the presence of chemical substance/The level of expressed mRNA in the absence of chemical substance,yeast gene YFR047C,1.6
same,level of expressed mRNA in the presence/in the absence of chemical substance,yeast gene YGL012W,1.1
same,The level of expressed mRNA in the presence of chemical substance/The level of expressed mRNA in the absence of chemical substance,yeast gene YGL022W,0.7
same,level of expressed mRNA in the presence/in the absence of chemical substance,yeast gene YGL115W,1.2
same,The level of expressed mRNA in the presence of chemical substance/The level of expressed mRNA in the absence of chemical substance,yeast gene YGL126W,0.9
same,level of expressed mRNA in the presence/in the absence of chemical substance,yeast gene YGL205W,9.1
same,The level of expressed mRNA in the presence of chemical substance/The level of expressed mRNA in the absence of chemical substance,yeast gene YGL209W,1.5
same,The level of expressed mRNA in the presence of chemical substance/The level of expressed mRNA in the absence of chemical substance,yeast gene YGL248W,1.2
same,The level of expressed mRNA in the presence of chemical substance/The level of expressed mRNA in the absence of chemical substance,yeast gene YGR037C,2.0
same,The level of expressed mRNA in the presence of chemical substance/The level of expressed mRNA in the absence of chemical substance,yeast gene YGR055W,0.7
same,level of expressed mRNA in the presence/in the absence of chemical substance,yeast gene YGR096W,1.0
same,level of expressed mRNA in the presence/in the absence of chemical substance,yeast gene YGR191W,0.8
same,The level of expressed mRNA in the presence of chemical substance/The level of expressed mRNA in the absence of chemical substance,yeast gene YGR194C,2.0
same,level of expressed mRNA in the presence/in the absence of chemical substance,yeast gene YGR204W,0.7
same,The level of expressed mRNA in the presence of chemical substance/The level of expressed mRNA in the absence of chemical substance,yeast gene YGR256W,0.8
same,The level of expressed mRNA in the presence of chemical substance/The level of expressed mRNA in the absence of chemical substance,yeast gene YGR282C,1.5
same,level of expressed mRNA in the presence/in the absence of chemical substance,yeast gene YGR288W,1.3
same,level of expressed mRNA in the presence/in the absence of chemical substance,yeast gene YHR025W,0.6
same,The level of expressed mRNA in the presence of chemical substance/The level of expressed mRNA in the absence of chemical substance,yeast gene YHR111W,1.2
same,level of expressed mRNA in the presence/in the absence of chemical substance,yeast gene YHR123W,1.0
same,The level of expressed mRNA in the presence of chemical substance/The level of expressed mRNA in the absence of chemical substance,yeast gene YHR137W,1.3
same,The level of expressed mRNA in the presence of chemical substance/The level of expressed mRNA in the absence of chemical substance,yeast gene YHR174W,1.2
same,The level of expressed mRNA in the presence of chemical substance/The level of expressed mRNA in the absence of chemical substance,yeast gene YHR176W,1.6
same,level of expressed mRNA in the presence/in the absence of chemical substance,yeast gene YHR210C,1.2
same,level of expressed mRNA in the presence/in the absence of chemical substance,yeast gene YIL006W,0.9
same,The level of expressed mRNA in the presence of chemical substance/The level of expressed mRNA in the absence of chemical substance,yeast gene YIL045W,1.8
same,The level of expressed mRNA in the presence of chemical substance/The level of expressed mRNA in the absence of chemical substance,yeast gene YIL107C,2.0
same,The level of expressed mRNA in the presence of chemical substance/The level of expressed mRNA in the absence of chemical substance,yeast gene YIL154C,1.0
same,The level of expressed mRNA in the presence of chemical substance/The level of expressed mRNA in the absence of chemical substance,yeast gene YIL155C,1.4
same,The level of expressed mRNA in the presence of chemical substance/The level of expressed mRNA in the absence of chemical substance,yeast gene YIL167W,0.8
same,The level of expressed mRNA in the presence of chemical substance/The level of expressed mRNA in the absence of chemical substance,yeast gene YIR034C,1.0
same,The level of expressed mRNA in the presence of chemical substance/The level of expressed mRNA in the absence of chemical substance,yeast gene YIR036C,1.3
same,The level of expressed mRNA in the presence of chemical substance/The level of expressed mRNA in the absence of chemical substance,yeast gene YJL031C,1.9
same,The level of expressed mRNA in the presence of chemical substance/The level of expressed mRNA in the absence of chemical substance,yeast gene YJL068C,1.5
same,The level of expressed mRNA in the presence of chemical substance/The level of expressed mRNA in the absence of chemical substance,yeast gene YJL088W,0.9
same,The level of expressed mRNA in the presence of chemical substance/The level of expressed mRNA in the absence of chemical substance,yeast gene YJL099W,1.6
same,level of expressed mRNA in the presence/in the absence of chemical substance,yeast gene YJL121C,1.0
same,The level of expressed mRNA in the presence of chemical substance/The level of expressed mRNA in the absence of chemical substance,yeast gene YJL155C,3.1
same,level of expressed mRNA in the presence/in the absence of chemical substance,yeast gene YJL167W,2.1
same,The level of expressed mRNA in the presence of chemical substance/The level of expressed mRNA in the absence of chemical substance,yeast gene YJL172W,1.8
same,level of expressed mRNA in the presence/in the absence of chemical substance,yeast gene YJL216C,2.0
same,The level of expressed mRNA in the presence of chemical substance/The level of expressed mRNA in the absence of chemical substance,yeast gene YJL219W,1.2
same,level of expressed mRNA in the presence/in the absence of chemical substance,yeast gene YJR077C,0.8
same,The level of expressed mRNA in the presence of chemical substance/The level of expressed mRNA in the absence of chemical substance,yeast gene YJR137C,0.8
same,level of expressed mRNA in the presence/in the absence of chemical substance,yeast gene YJR143C,0.8
same,The level of expressed mRNA in the presence of chemical substance/The level of expressed mRNA in the absence of chemical substance,yeast gene YJR148W,1.7
same,The level of expressed mRNA in the presence of chemical substance/The level of expressed mRNA in the absence of chemical substance,yeast gene YJR155W,1.4
